From US10717720B2, “Modified compound of andrographolide” (Heilongjiang Zhenbaodao Pharmaceutical Co., Ltd., priority 2015, dated 2020)

Each compound was assayed on LPS-induced IL-6 release level from THP-1 cells (assay: Test of IL-6 release from THP-1 cells (LPS-induced, IL-6 in supernatant detected by CBA)). Conditions: Homo sapiens, THP-1, 24 h, read-out: Inhibition rate @ 10 uM.
Assay type: cell-based
Summary of the method: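 THP-1 cells were treated with compound at final 30, 10, 3 and 1 uM, with dexamethasone 100 nM as reference, then stimulated with LPS. The LPS working solution was 800 ng/ml. After 24 h at 37 °C, IL-6 in the supernatant was measured by CBA.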

Compound	inhibition at 10 µM [%]
C=C1CCC2[C@]3(C)CO[C@@H](C4CCCC4)O[C@@H]3CC[C@@]2(C)[C@@H]1CCn1cc(C(=O)O)ccc1=O (stereo partly drawn) [Compound 457, 1-(2-((3R,4aR,6aS,7R,10bR)-3-cyclopentyl-6a,10b-dimethyl-8-dihydromethylene-1H-naphtho[2,1-d][1,3]dioxin-7-yl)ethyl)-6-oxo-1,6-dihydropyridine-3-carboxylic acid]	> 60

Same assay, conditions: Homo sapiens; inflammatory factor IL-6 detected by CBA; compound 10 uM; LPS-stimulated THP-1 cells, supernatant after 24 hours; read-out: Inhibition rate @ 10 uM

Compound	inhibition at 10 µM [%]
C=C1CCC2[C@]3(C)CO[C@@H](C4CCCC4)O[C@@H]3CC[C@@]2(C)[C@@H]1CCOc1cscc1C(=O)O (stereo partly drawn) [Compound 453, 4-(2-((3R,4aR,6aS,7R,10bR)-3-cyclopentyl-6a,10b-dimethyl-8-dihydromethylenedecahydro-1H-naphtho[2,1-d][1,3]dioxin-7-yl)ethoxy)thiophene-3-carboxylic acid]	> 60
C=C1CCC2[C@]3(C)CO[C@@H](C4CCCC4)O[C@@H]3CC[C@@]2(C)[C@@H]1CCOc1cnc(C(=O)O)nc1 (stereo partly drawn) [Compound 454, 5-(2-((3R,4aR,6aS,7R,10bR)-3-cyclopentyl-6a,10b-dimethyl-8-dihydromethylenedecahydro-1H-naphtho[2,1-d][1,3]dioxin-7-yl)ethoxy)pyrimidine-2-carboxylic acid]	30 to 60
C=C1CCC2[C@]3(C)CO[C@@H](C4CCCC4)O[C@@H]3CC[C@@]2(C)[C@@H]1CCN1CCOC[C@@H]1C(=O)O (stereo partly drawn) [Compound 456]	> 60
C=C1CCC2[C@]3(C)CO[C@@H](C4CCCC4)O[C@@H]3CC[C@@]2(C)[C@@H]1CCn1cc(C(=O)O)cn1 (stereo partly drawn) [Compound 458, 1-(2-((3R,4aR,6aS,7R,10bR)-3-cyclopentyl-6a,10b-dimethyl-8-dihydromethylene-1H-naphtho[2,1-d][1,3]dioxin-7-yl)ethyl)-1H-pyrazole-4-carboxylic acid]	30 to 60
C=C1CCC2[C@]3(C)CO[C@@H](C4CCCC4)O[C@@H]3CC[C@@]2(C)[C@@H]1CCOC1CCN(C(C)(C)C(=O)O)CC1 (stereo partly drawn) [Compound 463]	> 60
C=C1CCC2[C@]3(C)CO[C@@H](C4CCCC4)O[C@@H]3CC[C@@]2(C)[C@@H]1CCOC1CCN(CCO)CC1 (stereo partly drawn) [Compound 482, 2-(4-(2-((3R,4aR,6aS,7R,10bR)-3-cyclopentyl-6a,10b-dimethyl-8-dihydromethylenedecahydro-1H-naphtho[2,1-d][1,3]dioxin-7-yl)ethoxy)piperidine-1-yl)ethanol]	> 60
C=C1CCC2[C@]3(C)CO[C@@H](C4CCCC4)O[C@@H]3CC[C@@]2(C)[C@@H]1CCOC1CCN(CC(F)(F)F)CC1 (stereo partly drawn) [Compound 483, 4-(2-((3R,4aR,6aS,7R,10bR)-3-cyclopentyl-6a,10b-dimethyl-8-dihydromethylenedecahydro-1H-naphtho[2,1-d][1,3]dioxin-7-yl)ethoxy)-1-(2,2,2,-trifluoroethyl)piperidine]	30 to 60
C=C1CCC2[C@]3(C)CO[C@@H](C4CCCC4)O[C@@H]3CC[C@@]2(C)[C@@H]1CCOC1CCN(S(=O)(=O)C2CC2)CC1 (stereo partly drawn) [Compound 484, 4-(2-((3R,4aR,6aS,7R,10bR)-3-cyclopentyl-6a,10b-dimethyl-8-dihydromethylene-decahydro-1H-naphtho[2,1-d][1,3]dioxin-7-yl)ethoxyl)-1-(cyclopropylsulfonyl)piperidine]	> 60
